Experimental data as given in US20080003311A1, “Rosmarinus extracts for inhibiting/treating skin aging” (SOCIETE L'OREAL, S.A., priority 1999, published 2008).

System: normal human dermal fibroblasts
Experiment: Incorporation of radioactive proline (collagen synthesis) into cultures of normal human dermal fibroblasts
Assay type: cell-based
Protocol: The study was conducted by measuring the incorporation of radioactive proline into cultures of normal human dermal fibroblasts. The fibroblast cultures were prepared according to conventional cell culture methods, i.e., in MEM/M199 medium marketed by Gibco in the presence of sodium bicarbonate (1.87 mg/ml), of L-glutamine (2 mM), of penicillin (50 IU/ml) and of 10% of fetal calf serum (Gibco). The assay was carried out on cell cultures at 80% confluency, in a 24-well plate. […] The labeling with tritiated proline (L-[2,3-^3H]-proline sold by Amersham, 33 (μCi/ml) was carried out for 24 hours. The level of tritiated proline incorporated was measured at the end of the assay by acid precipitation of the proteins on filters and liquid scintillation counting. […] A positive control (vitamin C at 20 (g/ml) known to stimulate collagen synthesis was introduced into the assay as a reference. The results of this assay, expressed as percentages of activation, are reported in the following Table I: […]

O=C1O[C@H]([C@@H](O)CO)C(O)=C1O [Vitamin C]
cpm (tritiated proline incorporated) (vitamin C at 20 (g/ml, positive control), untreated cells 7498 cpm): 13091 cpm | percentage of activation of proline incorporation (vitamin C at 20 (g/ml, versus untreated cells)): 75%
